Test results from patent US20230159532A1, “PARATHYROID HORMONE (PTH) RECEPTOR ANTAGONISTS AND USES THEREOF” (Crinetics Pharmaceuticals, Inc., priority 2021, published 2023).

Target: T1, human PTHR1 receptor (Homo sapiens, UniProt Q03431)
T1 construct: purchased Eurofins HTS030M
T1 sequence (Q03431 27-593): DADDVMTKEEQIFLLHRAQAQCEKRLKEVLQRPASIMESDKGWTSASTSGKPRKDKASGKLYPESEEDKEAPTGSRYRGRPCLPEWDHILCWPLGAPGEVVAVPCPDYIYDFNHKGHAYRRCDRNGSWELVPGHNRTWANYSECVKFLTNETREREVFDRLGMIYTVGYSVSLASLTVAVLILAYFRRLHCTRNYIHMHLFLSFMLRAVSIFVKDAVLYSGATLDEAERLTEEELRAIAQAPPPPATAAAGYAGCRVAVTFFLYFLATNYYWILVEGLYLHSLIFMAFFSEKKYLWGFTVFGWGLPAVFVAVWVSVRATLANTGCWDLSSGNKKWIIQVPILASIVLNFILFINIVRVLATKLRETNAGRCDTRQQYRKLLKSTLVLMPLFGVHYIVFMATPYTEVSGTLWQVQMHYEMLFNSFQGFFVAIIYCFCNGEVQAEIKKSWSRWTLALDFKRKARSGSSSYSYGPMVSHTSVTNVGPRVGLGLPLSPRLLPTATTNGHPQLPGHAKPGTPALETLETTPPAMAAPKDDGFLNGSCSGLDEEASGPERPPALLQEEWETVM
Assay: Competitive antagonist binding assay for hPTH-R1 (radioactive competition binding, SPA beads)
Conditions: human PTHR1 membranes, [125I]-[Nle8,18,Tyr34]-PTH(1-34) 0.2 nM, 90 minutes at room temperature; read-out: hPTHR1 Ki
How it was run: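 Displacement of 0.2 nM radioiodinated [Nle8,18,Tyr34]-PTH(1-34) from membrane-bound human PTHR1 measured by scintillation proximity after 90 min at room temperature. Compounds typically 0-10,000 nM final, pH 7.4 HEPES/Mg/Ca buffer with BSA and detergent. Ki calculated from competition data.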

SMILES | Ki [nM]
CNCCNc1cc(F)c(N2C(=O)N(C(C)C)c3ncc(F)cc3-c3c(C)cc(Cl)cc32)c(F)c1 [1-78, 13-chloro-10-(2,6-difluoro-4-{[2-(methylamino)ethyl]amino}phenyl)-4-fluoro-15-methyl-8-(propan-2-yl)-6,8,10-triazatricyclo[9.4.0.0^2,7]pentadeca-1(11),2(7),3,5,12,14-hexaen-9-one] | < 100
Cc1cc(Cl)cc2c1-c1cc(F)cnc1N(C(C)C)C(=O)N2c1c(F)cc(NCCNCCO)cc1F [1-79, 13-chloro-10-[2,6-difluoro-4-({2-[(2-hydroxyethyl)amino]ethyl}amino)phenyl]-4-fluoro-15-methyl-8-(propan-2-yl)-6,8,10-triazatricyclo[9.4.0.0^2,7]pentadeca-1(11),2(7),3,5,12,14-hexaen-9-one] | < 100
Cc1cc(Cl)cc2c1-c1cc(F)cnc1N(C(C)C)C(=O)N2c1c(F)cc(NCCNCCCC(=O)O)cc1F [1-80, 4-{[2-({4-[13-chloro-4-fluoro-15-methyl-9-oxo-8-(propan-2-yl)-6,8,10-triazatricyclo[9.4.0.0^2,7]pentadeca-1(11),2(7),3,5,12,14-hexaen-10-yl]-3,5-difluorophenyl}amino)ethyl]amino}butanoic acid] | < 100
CCN1C(=O)N(c2c(F)cc(NCCNC)cc2F)c2cc(C#N)ccc2-c2cc(F)cnc21 [1-81, 10-(2,6-difluoro-4-{[2-(methylamino)ethyl]amino}phenyl)-8-ethyl-4-fluoro-9-oxo-6,8,10-triazatricyclo[9.4.0.0^2,7]pentadeca-1(11),2(7),3,5,12,14-hexaene-13-carbonitrile] | < 100
CCN1C(=O)N(c2c(F)cc(NCCNCCO)cc2F)c2cc(C#N)ccc2-c2cc(F)cnc21 [1-82, 10-[2,6-difluoro-4-({2-[(2-hydroxyethyl)amino]ethyl}amino)phenyl]-8-ethyl-4-fluoro-9-oxo-6,8,10-triazatricyclo[9.4.0.0^2,7]pentadeca-1(11),2(7),3,5,12,14-hexaene-13-carbonitrile] | < 100
CCN1C(=O)N(c2c(F)cc(NCCNCCCC(=O)O)cc2F)c2cc(C#N)ccc2-c2cc(F)cnc21 [1-83, 4-({2-[(4-{13-cyano-8-ethyl-4-fluoro-9-oxo-6,8,10-triazatricyclo[9.4.0.0^2,7]pentadeca-1(11),2(7),3,5,12,14-hexaen-10-yl}-3,5-difluorophenyl)amino]ethyl}amino)butanoic acid] | < 100
CNCCNc1cc(F)c(N2C(=O)N(C(C)C)c3ncc(F)cc3-c3ccc(C#N)cc32)c(F)c1 [1-84, 10-(2,6-difluoro-4-{[2-(methylamino)ethyl]amino}phenyl)-4-fluoro-9-oxo-8-(propan-2-yl)-6,8,10-triazatricyclo[9.4.0.0^2,7]pentadeca-1(11),2(7),3,5,12,14-hexaene-13-carbonitrile] | < 100
CC(C)N1C(=O)N(c2c(F)cc(NCCNCCO)cc2F)c2cc(C#N)ccc2-c2cc(F)cnc21 [1-85, 10-[2,6-difluoro-4-({2-[(2-hydroxyethyl)amino]ethyl}amino)phenyl]-4-fluoro-9-oxo-8-(propan-2-yl)-6,8,10-triazatricyclo[9.4.0.0^2,7]pentadeca-1(11),2(7),3,5,12,14-hexaene-13-carbonitrile] | < 100
CC(C)N1C(=O)N(c2c(F)cc(NCCNCCCC(=O)O)cc2F)c2cc(C#N)ccc2-c2cc(F)cnc21 [1-86, 4-{[2-({4-[13-cyano-4-fluoro-9-oxo-8-(propan-2-yl)-6,8,10-triazatricyclo[9.4.0.0^2,7]pentadeca-1(11),2(7),3,5,12,14-hexaen-10-yl]-3,5-difluorophenyl}amino)ethyl]amino}butanoic acid] | < 100
CCN1C(=O)N(c2c(F)cc(NCCNC)cc2F)c2cc(Cl)cc(OC)c2-c2cc(F)cnc21 [1-87, 13-chloro-10-(2,6-difluoro-4-{[2-(methylamino)ethyl]amino}phenyl)-8-ethyl-4-fluoro-15-methoxy-6,8,10-triazatricyclo[9.4.0.0^2,7]pentadeca-1(11),2(7),3,5,12,14-hexaen-9-one] | < 100

Now from value to compound:

Ki [nM] | SMILES
< 100 | CCN1C(=O)N(c2c(F)cc(NCCNCCO)cc2F)c2cc(Cl)cc(OC)c2-c2cc(F)cnc21 [1-88, 13-chloro-10-[2,6-difluoro-4-({2-[(2-hydroxyethyl)amino]ethyl}amino)phenyl]-8-ethyl-4-fluoro-15-methoxy-6,8,10-triazatricyclo[9.4.0.0^2,7]pentadeca-1(11),2(7),3,5,12,14-hexaen-9-one]
< 100 | CCN1C(=O)N(c2c(F)cc(NCCNC)cc2F)c2cc(Cl)ccc2-c2cc(C#N)cnc21 [1-89, 13-chloro-10-(2,6-difluoro-4-{[2-(methylamino)ethyl]amino}phenyl)-8-ethyl-9-oxo-6,8,10-triazatricyclo[9.4.0.0^2,7]pentadeca-1(11),2(7),3,5,12,14-hexaene-4-carbonitrile]
< 100 | CCN1C(=O)N(c2c(F)cc(NCCNCCO)cc2F)c2cc(Cl)ccc2-c2cc(C#N)cnc21 [1-90, 13-chloro-10-[2,6-difluoro-4-({2-[(2-hydroxyethyl)amino]ethyl}amino)phenyl]-8-ethyl-9-oxo-6,8,10-triazatricyclo[9.4.0.0^2,7]pentadeca-1(11),2(7),3,5,12,14-hexaene-4-carbonitrile]
< 100 | CNCCNc1cc(F)c(N2C(=O)N(C(C)C)c3ncc(Cl)cc3-c3ccc(C#N)cc32)c(F)c1 [1-91, 4-chloro-10-(2,6-difluoro-4-{[2-(methylamino)ethyl]amino}phenyl)-9-oxo-8-(propan-2-yl)-6,8,10-triazatricyclo[9.4.0.0^2,7]pentadeca-1(11),2(7),3,5,12,14-hexaene-13-carbonitrile]
< 100 | CC(C)N1C(=O)N(c2c(F)cc(NCCNCCO)cc2F)c2cc(C#N)ccc2-c2cc(Cl)cnc21 [1-92, 4-chloro-10-[2,6-difluoro-4-({2-[(2-hydroxyethyl)amino]ethyl}amino)phenyl]-9-oxo-8-(propan-2-yl)-6,8,10-triazatricyclo[9.4.0.0^2,7]pentadeca-1(11),2(7),3,5,12,14-hexaene-13-carbonitrile]
< 100 | CC(C)N1C(=O)N(c2c(F)cc(NCCNCCCC(=O)O)cc2F)c2cc(C#N)ccc2-c2cc(Cl)cnc21 [1-93, 4-{[2-({4-[4-chloro-13-cyano-9-oxo-8-(propan-2-yl)-6,8,10-triazatricyclo[9.4.0.0^2,7]pentadeca-1(11),2(7),3,5,12,14-hexaen-10-yl]-3,5-difluorophenyl}amino)ethyl]amino}butanoic acid]
< 100 | CCN1C(=O)N(c2c(F)cc(NCCNC)cc2F)c2cc(Cl)cc(F)c2-c2cc(F)cnc21 [1-94, 13-chloro-10-(2,6-difluoro-4-{[2-(methylamino)ethyl]amino}phenyl)-8-ethyl-4,15-difluoro-6,8,10-triazatricyclo[9.4.0.0^2,7]pentadeca-1(11),2(7),3,5,12,14-hexaen-9-one]
< 100 | CCN1C(=O)N(c2c(F)cc(NCCNCCO)cc2F)c2cc(Cl)cc(F)c2-c2cc(F)cnc21 [1-95, 13-chloro-10-[2,6-difluoro-4-({2-[(2-hydroxyethyl)amino]ethyl}amino)phenyl]-8-ethyl-4,15-difluoro-6,8,10-triazatricyclo[9.4.0.0^2,7]pentadeca-1(11),2(7),3,5,12,14-hexaen-9-one]
< 100 | CCN1C(=O)N(c2c(F)cc(NCCNCCCC(=O)O)cc2F)c2cc(Cl)cc(F)c2-c2cc(F)cnc21 [1-96, 4-({2-[(4-{13-chloro-8-ethyl-4,15-difluoro-9-oxo-6,8,10-triazatricyclo[9.4.0.0^2,7]pentadeca-1(11),2(7),3,5,12,14-hexaen-10-yl}-3,5-difluorophenyl)amino]ethyl}amino)butanoic acid]
< 100 | CCN1C(=O)N(c2c(F)cc(NCCNC)cc2F)c2cc(C#N)ccc2-c2cc(C(F)(F)F)cnc21 [1-97, 10-(2,6-difluoro-4-{[2-(methylamino)ethyl]amino}phenyl)-8-ethyl-9-oxo-4-(trifluoromethyl)-6,8,10-triazatricyclo[9.4.0.0^2,7]pentadeca-1(11),2(7),3,5,12,14-hexaene-13-carbonitrile]
< 100 | CCN1C(=O)N(c2c(F)cc(NCCNCCO)cc2F)c2cc(C#N)ccc2-c2cc(C(F)(F)F)cnc21 [1-98, 10-[2,6-difluoro-4-({2-[(2-hydroxyethyl)amino]ethyl}amino)phenyl]-8-ethyl-9-oxo-4-(trifluoromethyl)-6,8,10-triazatricyclo[9.4.0.0^2,7]pentadeca-1(11),2(7),3,5,12,14-hexaene-13-carbonitrile]
< 100 | CCN1C(=O)N(c2c(F)cc(NCCNC)cc2F)c2cc(C#N)cc(F)c2-c2cc(Cl)cnc21 [1-99, 4-chloro-10-(2,6-difluoro-4-{[2-(methylamino)ethyl]amino}phenyl)-8-ethyl-15-fluoro-9-oxo-6,8,10-triazatricyclo[9.4.0.0^2,7]pentadeca-1(11),2(7),3,5,12,14-hexaene-13-carbonitrile]
